Where two headings read alike, the source gives them in different places.

One test has as its target E. coli AP (Escherichia coli, UniProt P00634). Format: biochemical.
Test [1] relates to endogenous AP in uninfected MDCK cells. Further details: species or system canine.
Where [2] appears, read: 4.8 units/test of E. coli AP spike.
The mark [3] stands for this setting: 4.8 units/test of E. coli AP spike, no antigen, acid wash 0.15M.
[4] abbreviates: 600 ng uninfected MDCK cells, acid wash 0.15M.

E. coli AP, sequence (P00634 22-471): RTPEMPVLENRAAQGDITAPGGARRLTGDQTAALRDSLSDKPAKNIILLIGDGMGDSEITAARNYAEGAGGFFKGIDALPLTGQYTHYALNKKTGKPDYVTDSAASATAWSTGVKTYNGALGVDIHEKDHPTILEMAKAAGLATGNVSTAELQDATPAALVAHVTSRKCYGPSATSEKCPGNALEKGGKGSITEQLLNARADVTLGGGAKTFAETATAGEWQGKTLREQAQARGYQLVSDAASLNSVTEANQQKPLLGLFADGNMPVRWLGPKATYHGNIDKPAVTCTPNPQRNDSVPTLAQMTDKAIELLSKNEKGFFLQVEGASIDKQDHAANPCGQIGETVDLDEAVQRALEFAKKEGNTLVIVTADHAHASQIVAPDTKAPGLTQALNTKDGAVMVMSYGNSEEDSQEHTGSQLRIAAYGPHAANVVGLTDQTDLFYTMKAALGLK

Regarding `O=C(O)CC(O)(CC(=O)O)C(=O)O` [A, citric acid], on E. coli AP (setting [2]), the “reduction of signal due to the AP spike in comparison to the control (no acid)” value was “most effective”. Moreover, the reflectance entry on E. coli AP (setting [3]) is “.03”. In addition, in test [1] (setting [4]), the “Reflectance (arbitrary units)” value is given as “.12 arbitrary units”.
With `O=C(O)CCCC(=O)O` [B, glutaric acid], at E. coli AP (setting [3]), the reflectance entry is “.06” and the visual result is “(+)”. Moreover, the “Reflectance (arbitrary units)” value in test [1] (setting [4]) was “.10 arbitrary units”.
As for `O=C(O)C(O)C(O)C(=O)O` (stereo not drawn) [C, tartaric acid], the “reduction of signal due to the AP spike in comparison to the control (no acid)” value on E. coli AP (setting [2]) was “most effective”. Besides, the reflectance entry on E. coli AP (setting [3]) is “.04”. In addition, in test [1] (setting [4]), the “Reflectance (arbitrary units)” value is reported as “.10 arbitrary units”.
Turning to `O=C(O)CCC(=O)O` [D, succinic acid], at E. coli AP, the reflectance entry was “.06” and the visual entry is “(+)”. Moreover, the “Reflectance (arbitrary units)” value in test [1] is “.10 arbitrary units”.
As for `O=C(O)CC(O)C(=O)O` (stereo not drawn) [E, malic acid], on E. coli AP (setting [3]), the reflectance entry is “.06” and the visual entry is “(+)”. The “Reflectance (arbitrary units)” value in test [1] (setting [4]) is “.12 arbitrary units”.
For `CC(O)C(=O)O` (stereo not drawn) [F, lactic acid], on E. coli AP (setting [3]), the reflectance entry is “.06” and the visual result was “(+)”. In addition, in test [1] (setting [4]), the “Reflectance (arbitrary units)” value was “.12 arbitrary units”.

Values taken from patent US5279935A, “Method of immunossay including deactivation of endogenous alkaline phosphatase” (Becton, Dickinson and Company, priority 1990, dated 1994).
